Measurements published in US20130252832A1, “KRAS Variant and Tumor Biology” (Yale University, priority 2012, published 2013).

Assays:
[1] = test system: KRAS-variant 3′UTR reporter; test: Luciferase 3'UTR reporter expression following irinotecan exposure; format: cell-based
Text: (§1) The disclosure provides a method of predicting the response of a cancer cell to the combination of a chemotherapy and monoclonal antibody therapy, including detecting a mutation in let-7 complementary site LCS6 of human KRAS in a patient sample, wherein the mutation is a SNP comprising a uracil (U) or thymine (T) to guanine (G) transition at position 4 of LCS6, and wherein the presence of the mutation indicates a resistance to the combination. In certain embodiments of this method, the cancer cell is a colorectal cancer (CRC) cell. The cancer cell may be evaluated in vitro or ex vivo. […] The chemotherapy may be a cytotoxic agent. A non-limiting example of the cytotoxic agent is irinotecan.
(§2) FIG. 24B is a graph depicting the fold repression (expressed as KRAS variant/KRAS wild type) as a function of irinotecan concentration, when cancer cells are treated with irinotecan.

wild-type 3′UTR reporter = test: as above; format: cell-based
Text: as §1, §2

Compound: CCc1c2c(nc3ccc(OC(=O)N4CCC(N5CCCCC5)CC4)cc13)-c1cc3c(c(=O)n1C2)COC(=O)[C@]3(O)CC [irinotecan]
- Reporter expression following irinotecan exposure [1]: statistically-significant increase
- Reporter expression following irinotecan exposure (wild-type 3′UTR reporter): no change
